Earlier results, collected in patent publication US7258850B2, “Methods and compositions for treating erectile dysfunction” (Aradigm Corporation, priority 1999, dated 2007).
Counter-ions that a name gives are not always drawn. Like-named read-outs stand apart in the source and are kept apart here. No end group written: not given here.

What was measured:
human corpus carvernosum = conditions: human tissue
[1] = system: rabbit corpus carvernosum; conditions: rabbit tissue
Rho-kinase = conditions: applied topically, rats
smooth muscle = conditions: intracavernous
sGC = target: T1, sGC (Rattus norvegicus, UniProt P19686+P20595); conditions: administered intracavernously, rats
T1 construct: host or cells: in vivo, rat corpus cavernosum
T1 sequence (P20595 1-619): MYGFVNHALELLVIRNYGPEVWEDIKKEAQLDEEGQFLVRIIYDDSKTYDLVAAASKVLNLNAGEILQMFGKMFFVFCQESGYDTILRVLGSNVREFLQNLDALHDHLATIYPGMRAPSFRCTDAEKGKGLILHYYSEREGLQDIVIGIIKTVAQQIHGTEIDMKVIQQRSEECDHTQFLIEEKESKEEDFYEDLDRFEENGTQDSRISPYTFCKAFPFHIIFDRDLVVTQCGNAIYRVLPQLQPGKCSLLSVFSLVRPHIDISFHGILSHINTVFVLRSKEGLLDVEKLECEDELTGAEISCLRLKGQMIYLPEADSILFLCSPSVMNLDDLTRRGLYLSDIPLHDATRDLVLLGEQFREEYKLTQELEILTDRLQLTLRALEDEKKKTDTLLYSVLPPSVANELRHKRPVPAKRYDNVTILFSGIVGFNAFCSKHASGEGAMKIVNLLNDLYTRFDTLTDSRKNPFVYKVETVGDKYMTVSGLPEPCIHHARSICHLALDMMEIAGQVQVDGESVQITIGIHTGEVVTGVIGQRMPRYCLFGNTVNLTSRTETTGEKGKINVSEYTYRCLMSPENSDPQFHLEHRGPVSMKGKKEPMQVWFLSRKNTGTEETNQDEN
T1 sequence (P19686 1-690): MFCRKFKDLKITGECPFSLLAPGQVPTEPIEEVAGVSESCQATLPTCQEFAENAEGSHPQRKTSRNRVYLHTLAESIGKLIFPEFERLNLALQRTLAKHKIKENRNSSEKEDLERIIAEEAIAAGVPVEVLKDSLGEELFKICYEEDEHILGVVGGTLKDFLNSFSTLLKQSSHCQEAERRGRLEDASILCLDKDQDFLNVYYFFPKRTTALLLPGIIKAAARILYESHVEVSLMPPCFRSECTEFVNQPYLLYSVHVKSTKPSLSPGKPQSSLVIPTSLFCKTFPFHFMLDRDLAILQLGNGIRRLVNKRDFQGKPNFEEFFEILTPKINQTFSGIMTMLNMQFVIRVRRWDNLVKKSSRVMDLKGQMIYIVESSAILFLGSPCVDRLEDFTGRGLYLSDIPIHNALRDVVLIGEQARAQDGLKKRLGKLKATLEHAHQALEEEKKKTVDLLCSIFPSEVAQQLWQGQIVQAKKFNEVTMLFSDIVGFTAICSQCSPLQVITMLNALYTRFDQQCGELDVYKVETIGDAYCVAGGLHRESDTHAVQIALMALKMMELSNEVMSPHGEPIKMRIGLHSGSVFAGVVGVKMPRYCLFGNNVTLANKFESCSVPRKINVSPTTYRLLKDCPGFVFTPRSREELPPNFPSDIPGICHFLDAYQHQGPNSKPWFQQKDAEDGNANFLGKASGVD

[2] = system: dopamine D1 and D2 receptor; conditions: rats, apomorphine in combination with sildenafil

Nc1nc(-c2nn(Cc3ccccc3F)c3ncccc23)ncc1C1CC1 [BAY-41-2272]
relaxation of corpus cavernosum relative to YC-1 (human corpus carvernosum): more potently than YC-1
relaxation of corpus cavernosum relative to YC-1 [1]: more potently than YC-1

C[C@@H](N)[C@H]1CC[C@H](C(=O)Nc2ccncc2)CC1 [Y-27632]
erection (Rho-kinase): stimulated erection

Vasoactive intestinal peptid: intracavernous drug, potent smooth muscle relaxant (HSDAVFTDNYTRLRKQMAVKKYLNSILN; ends and bridges not checked; UniProt P01282 125-152, looked up)
duration of effect (smooth muscle): up to 2.5 hours

OCc1ccc(-c2nn(Cc3ccccc3)c3ccccc23)o1 [YC-1, 3-(5′-hydroxymethyl-2′furyl)-1-benzyl-indazole]
erection (sGC): elicited dose-dependent erection

CN1CCc2cccc3c2[C@H]1Cc1ccc(O)c(O)c1-3 [Apomorphine]
duration of erectile response [2]: prolonged in combination with sildenafil
duration of erectile response ([2]; listed as apomorphine): prolonged by sildenafil

CCCc1nn(C)c2c(=O)[nH]c(-c3cc(S(=O)(=O)N4CCN(C)CC4)ccc3OCC)nc12 [sildenifil citrate, Sildenafil citrate]
solubility in water: relatively insoluble in water
